The subject of data set [1] is E. coli strain AB1157. Put plainly: Fractional survival of histone H1-contacted cells by colony counting. On the procedure: Purified bovine histone H1 was prepared as described herein in Example 1. Cells of E. coli strain AB1157 (obtained from ATCC) were grown in NYET medium (4 grams per liter nutrient broth, 7.5 grams per liter yeast extract, and 4 grams per lither tryptone) at 37° C. E. coli cells in approximately the exponential growth phase were incubated in Sorensen buffer (41 mM Na2HPO4, 25.7 mM KH2PO4) for twenty minutes in the presence of a selected concentration of histone H1. The fractional survival of histone H1-contacted cells, relative to cells which were not contacted with histone H1 was determined by counting colonies using an automated colony counter (3M model 620). About 200 microliters of an H1-containing bacterial suspension was plated into Petri dishes by adding 10 milliliters of 57° C. medium containing 1.5% (w/w) Bacto agar. […]
Purified bovine histone H1 was prepared as described herein in Example 1. Cells of E. coli strain AB1157 were incubated in Sorensen buffer at a selected temperature for a selected period in the presence of a 1.9 micromolar histone H1 The fractional survival of histone H1-contacted cells, relative to cells not contacted with histone H1 was determined as described herein in Example 4. […] Normal human body temperature is about 37° C. […]
Purified bovine histone H1 was prepared as described herein in Example 1. Cells of E. coli strain AB1157 were incubated in Sorensen buffer at a selected temperature for a selected period in the presence of a selected concentration histone H1. In selected assays, the medium also contained between 0 and about 10% (v/v) human or bovine serum. The fractional survival of histone H1-contacted cells, relative to cells not contacted with histone H1 was determined as described herein in Example 4. […]

Data set [2] has as its system E. coli strain AB1157. In words: Inhibition of the antibiotic activity of histone H1 by heparin. It is filed as cell-based, Escherichia coli. The conditions noted are these: 4 micrograms per milliliter histone H1, 37° C., ten minutes. On the procedure: In selected assays, the incubation medium also contained a selected concentration of heparin, in the range from 0 to about 250 units per milliliter.

For data set [3], the system named is Bacillus cereus. In words: Percent reduction in colony formation (spectrum of antibiotic activity). Type of data set: cell-based. Particulars: 37° C. On the procedure:
(§1) Histone H1 suspended in Sorensen buffer was added to aliquots of individual bacterial cultures to achieve a final concentration of either 1.9 micromolar or 3.8 micromolar. No histone H1 was added to individual control culture aliquots. The aliquots were thereafter incubated at 37° C. for either ten minutes or forty-five minutes, and the aliquots were plated on appropriate solid or semisolid media.

Data set [4] deals with Bacillus megaterium. Described as above. It is filed as cell-based. The conditions noted are these: 37° C. As for the experimental part:
as §1

The subject of data set [5] is Bacillus subtilis. The data set is described as above. Type of data set: cell-based. Particulars: Incubation time 10 minutes; [Histone H1] 1.9 micromolar; 37° C. As for the experimental part:
as §1

Data set [6] deals with Enterococcus faecalis. Described as above. It is filed as cell-based. Particulars: 37° C. As for the experimental part:
as §1

In data set [7] the test system is Escherichia coli strain AB1157. The data set is described as above. Type of data set: cell-based. Particulars: 37° C. On the procedure:
as §1

Data set [8] relates to Proteus mirabilis. Described as above. It is filed as cell-based. Particulars: Incubation time 10 minutes; [Histone H1] 1.9 micromolar; 37° C. As for the experimental part: as §1
The subject of data set [9] is Pseudomonas aeruginosa. Described as above. Type of data set: cell-based. Particulars: 37° C. On the procedure: as §1
Data set [10] has as its system Salmonella enteritidis. Described as above. Particulars: Incubation time 10 minutes; [Histone H1] 1.9 micromolar; 37° C. Type of data set: cell-based. As for the experimental part: as §1
Data set [11] concerns Serratia marcescens. Described as above. Particulars: Incubation time 10 minutes; [Histone H1] 1.9 micromolar; 37° C. Type of data set: cell-based. As for the experimental part:
as §1

Data set [12] has as its system Staphylococcus aureus. The description is as above. It is filed as cell-based. The conditions noted are these: 37° C. On the procedure:
as §1

For data set [13], the system named is penicillin-resistant E. coli strain derived from strain AB1157. In words: Bacteriocidal effect upon penicillin-resistant bacteria (fractional survival). Type of data set: cell-based, Escherichia coli. The conditions noted are these: histone H1 in Sorensen buffer, 37° C. From the text: Cells of E. coli strain AB1157 were made penicillin-resistant by culturing them in penicillin-containing growth media over a period of several days. The resulting population was completely resistant to penicillin.

For data set [14], the system named is various strains of E. coli isolated from urinary tract infections. In words: Exposure time dependence of antibiotic activity, urinary tract infection isolates. Type of data set: cell-based, Escherichia coli. Particulars: after thirty minutes; all strains. As for the experimental part:
Histone H1 suspended in Sorensen buffer was added to aliquots of individual bacterial cultures to achieve a final concentration of either 1.9 micromolar or 3.8 micromolar. No histone H1 was added to individual control culture aliquots. […]

For data set [15], the system named is E. coli strain AB1157. In words: Membrane damage by Sytox Green dye and flow cytometer. Type of data set: cell-based, Escherichia coli. The conditions noted are these: 0.4, 0.95 and 1.9 μM histone H1, 37° C., various time intervals. On the procedure:
Membrane damage of E. coli cells was determined at various time intervals, using the dye Sytox Green and a flow cytometer as described (Roth et al., 1997, Appl. Env. Microbiol. 63:2421-2431).
On the technique in general: A flow cytometer gives signals particle by particle.

The subject of data set [16] is E. coli strain AB1157. In words: Binding of histone H1 to bacteria (activity of medium pre-contacted with cells). The conditions noted are these: forty-five minutes pre-incubation with E. coli cells, decanted medium re-inoculated. Type of data set: cell-based, Escherichia coli. As for the experimental part:
An aliquot of cells of E. coli strain AB1157 was incubated with histone H1 as described herein in Example 4. After forty-five minutes of incubation, cells were removed by centrifugation and decanting.

The test system of data set [17] is bacterial cells. Put plainly: Toxic concentration for bacterial cells. Type of data set: cell-based.
Data set [18] deals with E. coli strain AB1157. In words: Thermal stability of histone H1 (antibiotic activity after storage). Type of data set: cell-based, Escherichia coli. The conditions noted are these: for fractional survival of cells: 40 micrograms per milliliter, 37° C., ten minutes. As for the experimental part: In a first experiment, purified histone H1 was stored at −80° C. for more than thirty-six months.
In a second experiment, aliquots of purified histone H1 were separately stored at −80° C., at 4° C., and at 37° C. for twenty hours. […] The fractional survival of cells incubated with histone H1 stored at −80° C. was about 0.1%. The fractional survival of cells incubated with histone H1 stored at 4° C. was about 1%. The fractional survival of cells incubated with histone H1 stored at 37° C. was about 6%.

The subject of data set [19] is E. coli strain AB1157. Put plainly: Development of bacterial resistance to histone H1. It is filed as cell-based, Escherichia coli. Particulars: FIG. 6. As for the experimental part:
Purified bovine histone H1 is prepared as described herein in Example 1. Cells of E. coli strain AB1157 are incubated in aliquots of Sorensen buffer containing various set concentrations of histone H1. The aliquot having the highest histone H1 concentration in which cells proliferate (as indicated, for example, by turbidity of the buffer) is used to seed cultures having even higher histone H1 concentrations. This process is repeated until cells are isolated which grow at a concentration of histone H1 that is normally toxic to E. coli cells.

In data set [20] the test system is non-cancerous eukaryotic cells.
The subject of data set [21] is animal cells. Particulars: on the order of; cited from earlier work.
[22] abbreviates: Incubation time 10 minutes, [Histone H1] 1.9 micromolar.
Setting [23] is: Incubation time 10 minutes, [Histone H1] 3.8 micromolar.
The mark [24] stands for this setting: Incubation time 45 minutes, [Histone H1] 1.9 micromolar.
Where [25] appears, read: Incubation time 45 minutes, [Histone H1] 3.8 micromolar.

As to `NC[C@H]1O[C@H](O[C@H]2[C@H](O)[C@@H](O[C@H]3O[C@H](CO)[C@@H](O)[C@H](N)[C@H]3O)[C@H](N)C[C@@H]2N)[C@H](O)[C@@H](O)[C@@H]1O` [kanamycin, reference compound], the cytotoxicity entry in data set [1] (1.9 micromolar, 37° C., ten minutes, Sorensen buffer) is recorded as “no measurable cytotoxicity”.
Regarding heparin, in data set [2], the “heparin concentration at which histone H1 exhibited essentially no antibiotic activity” value is reported as “greater than 150 units per milliliter” and the “lowest heparin concentration that reduced the antibiotic activity of histone H1” value came to 6.2 units per milliliter.
Regarding histone H1, in [1], the “lowest H1 concentration at which significant cytotoxicity was observed” value worked out at 0.24 µM. Moreover, the “dependence of antibiotic activity on serum” value in data set [1] (0 to about 10% (v/v) human AB serum or fetal calf serum) is listed as “independent of serum concentrations at concentrations at least as high as 10% (v/v) serum”. Besides, the “incubation time sufficient to achieve maximal cytotoxic effect” value in data set [1] (1.9 micromolar H1, 37° C.) is “less than ten”. Also, the “temperature dependency of bactericidal effect” value in data set [1] (1.9 micromolar histone H1, 4° C., 30° C., 37° C.) is “significantly greater at 37 °C than at either 4 °C or 30 °C”. Besides, in data set [1] (histone H1 concentration less than 1 micromolar, twenty minutes in Sorensen buffer), the “E. coli cells killed” value is given as “more than 98%”. The “Percent Reduction in Colony Formation” value in [3] (setting [22]) stood at 11.8%; in data set [3] (setting [23]) it was 50.7%; in data set [3] (setting [24]) it was 42.5%; in [3] (setting [25]), 77.4%; in [4] (setting [22]) it was 93.3%; in [4] (setting [23]) it was 91.2%. For the same molecule, the “Percent Reduction in Colony Formation” value in data set [4] (setting [24]) turned out to be 92.9%; in data set [4] (setting [25]), 99.3%; in [5], 97.4%; in [6] (setting [22]), 0.0%; in [6] (setting [23]), 0.0%; in [6] (setting [24]), 0.0%. Also, the “Percent Reduction in Colony Formation” value was 0.0% in data set [6] (setting [25]); 99.6% in data set [7] (setting [22]); 99.9% in data set [7] (setting [23]); 99.7% in [7] (setting [24]); 100% in [7] (setting [25]); 0.0% in data set [8]. Also, the “Percent Reduction in Colony Formation” value in data set [9] (setting [22]) was 99.6%; in data set [9] (setting [23]), 100%; in [9] (setting [24]), 100%; in [9] (setting [25]) it was 100%; in [10], >99%; in data set [11] it was 14.0%. Besides, the “Percent Reduction in Colony Formation” value in data set [12] (setting [22]), in [12] (setting [23]), in data set [12] (setting [24]) and in [12] (setting [25]) was 0.0% each time. Moreover, in data set [13], the “killing of penicillin-resistant cells compared with wild type cells” value is recorded as “killed penicillin-resistant cells approximately as efficiently as it killed wild type cells”. In [14], the survival entry is “less than 3%”. Also, the “fraction of the cells which exhibited membrane damage” value in data set [15] is listed as “dependent on the concentration of histone H1”. In data set [16], the binding to bacteria entry was “binds specifically to bacteria in a non-reversible manner”. The toxic concentration result in [17] (bacterial cells) was “less than 80 micrograms per milliliter”; in [20], “more than 200 or 250 micrograms per milliliter”. Besides, in data set [17] (relatively low concentrations, as described herein), the “concentrations that induce death of bacterial cells” value fell in the range of 0.2 to 4 µM. In addition, the “fractional survival of cells” value was “about 1%” in data set [18] (histone H1 stored at 4° C. for twenty hours), “about 6%” in data set [18] (histone H1 stored at 37° C. for twenty hours) and “about 0.1%” in data set [18] (histone H1 stored at −80° C. for twenty hours). In data set [18] (stored at −80° C. for more than thirty-six months), the “antibiotic activity after storage” value was “not significantly decreased”. Further, in data set [19], the “development of resistance of E. coli cells to the antibiotic activity” value is listed as “can develop resistance”. In addition, the “concentrations that may induce death of animal cells” value in [21] was 10 to 100 µM.

B1: Trypsin: Protease used to digest histone H1; tested alone as control (protein, UniProt P00760 24-246, looked up)
Serine protease 1: IVGGYTCGANTVPYQVSLNSGYHFCGGSLINSQWVVSAAHCYKSGIQVRLGEDNINVVEGNEQFISASKSIVHPSYNSNTLNNDIMLIKLKSAASLNSRVASISLPTSCASAGTQCLISGWGNTKSSGTSYPDVLKCLKAPILSDSSCKSAYPGQITSNMFCAGYLEGGKDSCQGDSGGPVVCSGKLQGIVSWGSGCAQKNKPGVYTKVCNYVSWIKQTIASN
Take B1: in data set [1] (trypsin alone), the “effect on survival of the bacteria” value is on record as “had no effect on the survival of the bacteria”.
